In the kinase profiling compilation of Christmann-Franck et al. (2016):
Values joined by “and” are separate entries in the source; they are usually repeats but may differ in a detail not shown here. Equal values may be shown once. One block for each compound: values may come before it.

Columns and labels:
Assay in all cases: radiometric filter-binding kinase assay, Kinase HotSpot
Conditions in all cases: compound 0.5 µM; ATP 10 µM
[1] = target: CAMK1D (human) (UniProt Q8IU85)
[2] = target: CAMK1G (human) (UniProt Q96NX5)
Sequence of CAMK1G (human) (Q96NX5 whole entry, looked up): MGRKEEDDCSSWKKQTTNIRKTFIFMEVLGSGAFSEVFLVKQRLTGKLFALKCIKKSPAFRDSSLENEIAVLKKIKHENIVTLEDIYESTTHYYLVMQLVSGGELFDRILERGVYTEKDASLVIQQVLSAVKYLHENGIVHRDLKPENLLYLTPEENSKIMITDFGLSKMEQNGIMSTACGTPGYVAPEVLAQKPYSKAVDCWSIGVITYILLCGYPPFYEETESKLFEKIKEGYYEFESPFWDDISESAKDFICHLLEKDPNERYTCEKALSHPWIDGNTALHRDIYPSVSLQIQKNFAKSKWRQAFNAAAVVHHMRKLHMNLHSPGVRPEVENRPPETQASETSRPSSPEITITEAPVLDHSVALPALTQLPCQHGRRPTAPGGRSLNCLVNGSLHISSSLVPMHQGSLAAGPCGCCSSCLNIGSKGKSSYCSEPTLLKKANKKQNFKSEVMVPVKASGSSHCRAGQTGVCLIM

[3] = target: CAMKK2 (human) (UniProt Q96RR4)
[4] = target: CDC42BPA (human) (UniProt Q5VT25)
[5] = target: CDK5 CDK5R1 p35 (human) (UniProt Q00535+Q15078)
[6] = target: CSNK2A1 (human) (UniProt P68400)
[7] = target: DAPK1 (human) (UniProt P53355)
[8] = target: DYRK4 (human) (UniProt Q9NR20)
[9] = target: EPHA2 (human) (UniProt P29317)
[10] = target: FGFR4 (human) (UniProt P22455)
[11] = target: GRK7 (human) (UniProt Q8WTQ7)
[12] = target: HIPK2 (human) (UniProt Q9H2X6)
Sequence of HIPK2 (human) (Q9H2X6 whole entry, looked up): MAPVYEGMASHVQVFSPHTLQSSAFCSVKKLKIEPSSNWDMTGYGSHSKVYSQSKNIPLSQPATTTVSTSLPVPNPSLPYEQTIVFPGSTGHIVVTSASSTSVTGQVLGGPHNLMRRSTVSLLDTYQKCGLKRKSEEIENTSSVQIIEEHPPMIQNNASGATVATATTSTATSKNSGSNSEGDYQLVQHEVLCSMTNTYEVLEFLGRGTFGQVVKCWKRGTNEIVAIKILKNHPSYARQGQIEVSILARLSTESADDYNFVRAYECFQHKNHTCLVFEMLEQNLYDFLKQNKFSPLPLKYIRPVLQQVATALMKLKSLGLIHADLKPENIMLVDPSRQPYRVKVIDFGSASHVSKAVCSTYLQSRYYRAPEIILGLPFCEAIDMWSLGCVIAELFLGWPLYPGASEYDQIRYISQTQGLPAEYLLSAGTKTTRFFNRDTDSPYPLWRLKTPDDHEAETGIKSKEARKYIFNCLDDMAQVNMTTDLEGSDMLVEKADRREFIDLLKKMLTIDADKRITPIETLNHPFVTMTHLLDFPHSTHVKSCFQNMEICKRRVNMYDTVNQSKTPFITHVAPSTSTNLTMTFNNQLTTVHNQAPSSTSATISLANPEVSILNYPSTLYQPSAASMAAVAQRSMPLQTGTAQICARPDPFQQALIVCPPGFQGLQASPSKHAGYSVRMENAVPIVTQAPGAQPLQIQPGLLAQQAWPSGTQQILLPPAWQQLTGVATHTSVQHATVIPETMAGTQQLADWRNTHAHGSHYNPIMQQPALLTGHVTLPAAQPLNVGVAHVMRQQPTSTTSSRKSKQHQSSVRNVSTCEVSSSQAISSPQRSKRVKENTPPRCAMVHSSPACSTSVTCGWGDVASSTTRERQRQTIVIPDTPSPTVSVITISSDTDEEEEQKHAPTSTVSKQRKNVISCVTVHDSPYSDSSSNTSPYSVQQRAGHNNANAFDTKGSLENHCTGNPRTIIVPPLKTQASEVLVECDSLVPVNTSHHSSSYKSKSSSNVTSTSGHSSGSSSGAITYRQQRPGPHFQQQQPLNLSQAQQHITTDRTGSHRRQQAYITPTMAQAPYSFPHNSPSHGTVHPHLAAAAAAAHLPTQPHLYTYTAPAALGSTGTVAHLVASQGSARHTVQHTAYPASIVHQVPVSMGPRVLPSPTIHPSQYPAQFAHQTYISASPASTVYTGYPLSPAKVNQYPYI

[13] = target: LYN (human) (UniProt P07948)
[14] = target: MAP2K1 (human) (UniProt Q02750)
[15] = target: MAPK12 (human) (UniProt P53778)
[16] = target: MAPK3 (human) (UniProt P27361)
[17] = target: MET (human) (UniProt P08581)
[18] = target: MUSK (human) (UniProt O15146)
[19] = target: NEK2 (human) (UniProt P51955)
[20] = target: NEK3 (human) (UniProt P51956)
[21] = target: NTRK1 (human) (UniProt P04629)
[22] = target: PAK6 (human) (UniProt Q9NQU5)
Sequence of PAK6 (human) (Q9NQU5 whole entry, looked up): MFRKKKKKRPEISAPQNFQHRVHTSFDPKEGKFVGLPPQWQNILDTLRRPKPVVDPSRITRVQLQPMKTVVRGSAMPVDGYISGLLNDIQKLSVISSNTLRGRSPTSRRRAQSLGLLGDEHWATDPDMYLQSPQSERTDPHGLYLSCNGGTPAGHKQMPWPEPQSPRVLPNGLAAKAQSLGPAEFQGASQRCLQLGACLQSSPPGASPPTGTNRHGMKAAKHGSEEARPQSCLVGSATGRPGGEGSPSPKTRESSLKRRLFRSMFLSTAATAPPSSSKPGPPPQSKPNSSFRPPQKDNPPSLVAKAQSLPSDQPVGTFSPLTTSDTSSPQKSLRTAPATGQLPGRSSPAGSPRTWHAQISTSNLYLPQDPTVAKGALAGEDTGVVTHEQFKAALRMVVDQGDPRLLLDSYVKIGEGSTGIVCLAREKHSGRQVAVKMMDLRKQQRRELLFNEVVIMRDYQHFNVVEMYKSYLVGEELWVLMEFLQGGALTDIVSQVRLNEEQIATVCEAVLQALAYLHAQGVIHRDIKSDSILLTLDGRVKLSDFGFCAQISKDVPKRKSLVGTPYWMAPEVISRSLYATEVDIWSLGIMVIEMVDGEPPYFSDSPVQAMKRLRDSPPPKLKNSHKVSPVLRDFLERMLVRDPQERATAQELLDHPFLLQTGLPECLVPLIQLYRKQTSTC

[23] = target: PASK (human) (UniProt Q96RG2)
Sequence of PASK (human) (Q96RG2 whole entry, looked up): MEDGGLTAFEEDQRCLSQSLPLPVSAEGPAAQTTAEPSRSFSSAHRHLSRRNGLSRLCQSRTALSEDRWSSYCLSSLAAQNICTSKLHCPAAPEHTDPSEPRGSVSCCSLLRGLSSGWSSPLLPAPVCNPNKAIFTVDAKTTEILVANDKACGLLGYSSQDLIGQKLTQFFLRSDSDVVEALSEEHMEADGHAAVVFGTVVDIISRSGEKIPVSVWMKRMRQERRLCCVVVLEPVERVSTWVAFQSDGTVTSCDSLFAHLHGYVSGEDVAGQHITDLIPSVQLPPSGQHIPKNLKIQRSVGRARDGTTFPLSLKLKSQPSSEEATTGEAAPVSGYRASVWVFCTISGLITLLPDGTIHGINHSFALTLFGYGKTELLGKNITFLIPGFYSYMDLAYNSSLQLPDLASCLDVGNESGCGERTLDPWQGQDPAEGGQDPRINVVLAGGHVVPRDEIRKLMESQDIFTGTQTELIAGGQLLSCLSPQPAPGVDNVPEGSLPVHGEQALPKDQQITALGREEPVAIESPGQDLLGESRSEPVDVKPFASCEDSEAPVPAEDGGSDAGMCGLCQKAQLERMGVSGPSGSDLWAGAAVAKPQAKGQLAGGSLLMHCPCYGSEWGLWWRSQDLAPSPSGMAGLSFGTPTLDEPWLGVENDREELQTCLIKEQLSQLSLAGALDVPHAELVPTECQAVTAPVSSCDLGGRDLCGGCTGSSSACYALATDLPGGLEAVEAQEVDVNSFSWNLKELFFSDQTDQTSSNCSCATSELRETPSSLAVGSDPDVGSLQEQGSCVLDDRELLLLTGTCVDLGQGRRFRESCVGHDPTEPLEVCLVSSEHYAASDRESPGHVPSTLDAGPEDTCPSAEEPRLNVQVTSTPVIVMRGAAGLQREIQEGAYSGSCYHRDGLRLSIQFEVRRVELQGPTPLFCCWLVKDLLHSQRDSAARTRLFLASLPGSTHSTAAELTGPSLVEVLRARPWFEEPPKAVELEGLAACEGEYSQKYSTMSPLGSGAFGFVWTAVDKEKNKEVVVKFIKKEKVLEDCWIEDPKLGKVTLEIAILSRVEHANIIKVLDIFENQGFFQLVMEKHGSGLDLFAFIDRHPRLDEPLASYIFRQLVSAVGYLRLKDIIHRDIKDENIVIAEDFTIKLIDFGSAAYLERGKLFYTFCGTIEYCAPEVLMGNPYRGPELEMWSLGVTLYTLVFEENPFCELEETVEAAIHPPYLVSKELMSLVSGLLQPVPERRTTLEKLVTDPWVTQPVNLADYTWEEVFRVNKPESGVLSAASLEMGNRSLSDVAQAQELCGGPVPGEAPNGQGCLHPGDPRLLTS

[24] = target: PHKG1 (human) (UniProt Q16816)
[25] = target: PKN2 (human) (UniProt Q16513)
[26] = target: PLK3 (human) (UniProt Q9H4B4)
[27] = target: PRKCE (human) (UniProt Q02156)
Sequence of PRKCE (human) (Q02156 whole entry, looked up): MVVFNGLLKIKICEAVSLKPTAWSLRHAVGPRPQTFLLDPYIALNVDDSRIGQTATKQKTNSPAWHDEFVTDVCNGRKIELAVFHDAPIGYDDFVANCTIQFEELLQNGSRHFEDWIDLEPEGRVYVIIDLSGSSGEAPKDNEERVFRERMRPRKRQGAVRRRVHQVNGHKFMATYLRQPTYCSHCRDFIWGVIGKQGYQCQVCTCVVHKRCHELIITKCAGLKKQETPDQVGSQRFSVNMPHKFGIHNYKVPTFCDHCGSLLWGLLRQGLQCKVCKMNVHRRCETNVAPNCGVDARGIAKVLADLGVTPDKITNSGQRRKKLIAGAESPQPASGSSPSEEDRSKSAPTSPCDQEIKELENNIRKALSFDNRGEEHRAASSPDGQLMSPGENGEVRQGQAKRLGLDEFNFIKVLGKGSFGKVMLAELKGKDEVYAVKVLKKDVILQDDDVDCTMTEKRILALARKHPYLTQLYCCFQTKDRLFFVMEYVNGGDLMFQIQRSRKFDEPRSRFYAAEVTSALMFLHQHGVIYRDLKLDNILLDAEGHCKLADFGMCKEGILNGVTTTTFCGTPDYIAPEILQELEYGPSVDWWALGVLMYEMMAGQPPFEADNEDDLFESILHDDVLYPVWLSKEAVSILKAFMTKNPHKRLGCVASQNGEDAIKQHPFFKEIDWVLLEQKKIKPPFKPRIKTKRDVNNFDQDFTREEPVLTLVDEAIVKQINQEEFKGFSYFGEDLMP

[28] = target: PRKD2 (human) (UniProt Q9BZL6)
[29] = target: PTK6 (human) (UniProt Q13882)
[30] = target: RPS6KA3 KD1 KD2 (human) (UniProt P51812)
[31] = target: SGK3 (human) (UniProt Q96BR1)
[32] = target: SIK2 (human) (UniProt Q9H0K1)
[33] = target: SRC (human) (UniProt P12931)
[34] = target: SRPK2 (human) (UniProt P78362)
[35] = target: STK10 (human) (UniProt O94804)
[36] = target: TBK1 (human) (UniProt Q9UHD2)
[37] = target: TGFBR2 (human) (UniProt P37173)
[38] = target: TSSK2 (human) (UniProt Q96PF2)
[39] = target: ULK1 (human) (UniProt O75385)
[40] = target: VRK1 (human) (UniProt Q99986)
[41] = target: WEE1 (human) (UniProt P30291)
Sequence of WEE1 (human) (P30291 whole entry, looked up): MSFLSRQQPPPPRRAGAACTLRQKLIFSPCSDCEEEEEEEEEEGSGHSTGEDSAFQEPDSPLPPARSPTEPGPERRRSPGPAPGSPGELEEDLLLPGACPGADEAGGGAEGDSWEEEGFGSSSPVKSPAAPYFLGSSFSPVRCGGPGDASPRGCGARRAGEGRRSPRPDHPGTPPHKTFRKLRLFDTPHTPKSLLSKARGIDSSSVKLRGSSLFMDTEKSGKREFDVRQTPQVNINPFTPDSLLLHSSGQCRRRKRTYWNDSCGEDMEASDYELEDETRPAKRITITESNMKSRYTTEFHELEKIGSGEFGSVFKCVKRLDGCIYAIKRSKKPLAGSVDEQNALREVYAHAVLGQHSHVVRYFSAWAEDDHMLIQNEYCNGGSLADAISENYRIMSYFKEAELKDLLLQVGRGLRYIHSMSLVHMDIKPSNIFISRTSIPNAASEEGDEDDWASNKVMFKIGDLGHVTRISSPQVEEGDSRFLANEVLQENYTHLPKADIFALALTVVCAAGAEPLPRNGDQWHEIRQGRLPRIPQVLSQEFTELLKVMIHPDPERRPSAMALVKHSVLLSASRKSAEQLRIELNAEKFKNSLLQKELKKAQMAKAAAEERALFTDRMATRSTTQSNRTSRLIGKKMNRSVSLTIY

[42] = target: WNK3 (human) (UniProt Q9BYP7)

SMILES: Oc1ccc(Nc2nc(-c3ccc(Cl)cc3)cs2)cc1
- residual activity [1]: 103%
- residual activity [2]: 106%
- residual activity [3]: 101%
- residual activity [4]: 87.1%
- residual activity [5]: 104%
- residual activity [6]: 101%
- residual activity [7]: 101%
- residual activity [8]: 95.9%
- residual activity [9]: 105%
- residual activity [10]: 71.6%
- residual activity [11]: 109%
- residual activity [12]: 90.9%
- residual activity [13]: 100%
- residual activity [14]: 90.7%
- residual activity [15]: 106%
- residual activity [16]: 103%
- residual activity [17]: 99.4%
- residual activity [18]: 99.5%
- residual activity [19]: 110%
- residual activity [20]: 98.4%
- residual activity [21]: 104%
- residual activity [22]: 100%
- residual activity [23]: 131%
- residual activity [24]: 96.5%
- residual activity [25]: 93.8%
- residual activity [26]: 97.4%
- residual activity [27]: 99.6%
- residual activity [28]: 102%
- residual activity [29]: 87.4%
- residual activity [30]: 107%
- residual activity [31]: 98%
- residual activity [32]: 90.7%
- residual activity [33]: 95.1%
- residual activity [34]: 104%
- residual activity [35]: 96.6%
- residual activity [36]: 95.2%
- residual activity [37]: 112%
- residual activity [38]: 102%
- residual activity [39]: 84.2%
- residual activity [40]: 99.8%
- residual activity [41]: 93.2%
- residual activity [42]: 98.7%

- residual activity [1]: 79.1%
- residual activity [2]: 101%
- residual activity [3]: 102%
- residual activity [4]: 85.8%
- residual activity [5]: 24.7%
- residual activity [6]: 81.8%
- residual activity [7]: 86.8%
- residual activity [8]: 96.7%
- residual activity [9]: 95.8%
- residual activity [10]: 82.6%
- residual activity [11]: 99.5%
- residual activity [12]: 99.1%
- residual activity [13]: 28.1% and 52.4%
- residual activity [14]: 84.9%
- residual activity [15]: 85.2%
- residual activity [16]: 93.7%
- residual activity [17]: 98.2%
- residual activity [18]: 68.5%
- residual activity [19]: 73.9%
- residual activity [20]: 130%
- residual activity [21]: 54.7%
- residual activity [22]: 74.8%
- residual activity [23]: 86.2%
- residual activity [24]: 67.7%
- residual activity [25]: 85.4%
- residual activity [26]: 96.2%
- residual activity [27]: 86.2%
- residual activity [28]: 87.8%
- residual activity [29]: 91.2%
- residual activity [30]: 91.9%
- residual activity [31]: 100%
- residual activity [32]: 54.6%
- residual activity [33]: 26.2%
- residual activity [34]: 96.6%
- residual activity [35]: 99.3%
- residual activity [36]: 78.5%
- residual activity [37]: 132%
- residual activity [38]: 101%
- residual activity [39]: 95.6%
- residual activity [40]: 80.7%
- residual activity [41]: 93.7%
- residual activity [42]: 93%
SMILES: CC(=O)O/N=C1\C(=C2\C(=O)Nc3cc(Br)ccc32)Nc2ccccc21

SMILES: Cn1sc(=O)n(Cc2ccccc2)c1=O
- residual activity [1]: 97.1%
- residual activity [2]: 117%
- residual activity [3]: 95.2%
- residual activity [4]: 94%
- residual activity [5]: 90.1%
- residual activity [6]: 95.4%
- residual activity [7]: 97.9%
- residual activity [8]: 99.3%
- residual activity [9]: 96.5%
- residual activity [10]: 97.2%
- residual activity [11]: 112%
- residual activity [12]: 99.6%
- residual activity [13]: 90.8% and 98.9%
- residual activity [14]: 83.8%
- residual activity [15]: 102%
- residual activity [16]: 90.4%
- residual activity [17]: 64.2%
- residual activity [18]: 103%
- residual activity [19]: 99.7%
- residual activity [20]: 89.3%
- residual activity [21]: 99.3%
- residual activity [22]: 93.4%
- residual activity [23]: 101%
- residual activity [24]: 102%
- residual activity [25]: 97.2%
- residual activity [26]: 99.1%
- residual activity [27]: 94.8%
- residual activity [28]: 95.1%
- residual activity [29]: 96.7%
- residual activity [30]: 97.5%
- residual activity [31]: 102%
- residual activity [32]: 98.6%
- residual activity [33]: 95%
- residual activity [34]: 98.1%
- residual activity [35]: 98.1%
- residual activity [36]: 102%
- residual activity [37]: 123%
- residual activity [38]: 100%
- residual activity [39]: 98.9%
- residual activity [40]: 94.2%
- residual activity [41]: 92.3%
- residual activity [42]: 101%

- residual activity [1]: 92.3%
- residual activity [2]: 101%
- residual activity [3]: 66.8%
- residual activity [4]: 93.7%
- residual activity [5]: 23.8%
- residual activity [6]: 78.2%
- residual activity [7]: 83.2%
- residual activity [8]: 96.8%
- residual activity [9]: 84.3%
- residual activity [10]: 91.9%
- residual activity [11]: 84.4%
- residual activity [12]: 104%
- residual activity [13]: 64.6% and 79.6%
- residual activity [14]: 99.6%
- residual activity [15]: 99.5%
- residual activity [16]: 90.4%
- residual activity [17]: 110%
- residual activity [18]: 71.2%
- residual activity [19]: 109%
- residual activity [20]: 102%
- residual activity [21]: 12.4%
- residual activity [22]: 94.4%
- residual activity [23]: 94.1%
- residual activity [24]: 31.5%
- residual activity [25]: 97.8%
- residual activity [26]: 93%
- residual activity [27]: 96.5%
- residual activity [28]: 89%
- residual activity [29]: 97.2%
- residual activity [30]: 61.4%
- residual activity [31]: 102%
- residual activity [32]: 89.8%
- residual activity [33]: 65.1%
- residual activity [34]: 91.3%
- residual activity [35]: 74%
- residual activity [36]: 53.6%
- residual activity [37]: 113%
- residual activity [38]: 97.7%
- residual activity [39]: 78.9%
- residual activity [40]: 86.3%
- residual activity [41]: 87.1%
- residual activity [42]: 89.4%
SMILES: O=C1Nc2ccccc2/C1=C1\Nc2ccccc2\C1=N/O
